{"source": "patent US7345028B1", "about": "“Energy-protective composition comprising adenosine phosphates” (priority 2002, dated 2008)", "origin": "cited, not measured here", "tested_on": "experimental animals", "settings": "administered prior to and after gamma irradiation", "data": [{"smiles": "Nc1ncnc2c1ncn2[C@@H]1O[C@H](COP(=O)(O)OP(=O)(O)O)[C@@H](O)[C@H]1O", "note": "[adenosine diphosphate]", "values": [{"measurement": "protective action against irradiation", "value": "protective action"}]}]}
